Data from patent US9981983B2, “Thienopyranones as kinase inhibitors” (SignalRx Pharmaceuticals, Inc., priority 2008, dated 2018).
Read-outs that look alike come from different tables or passages of the source.

Assays:
Type in all cases: cell-based
[1] = system: BXPC3 (Pancreas); assay: Cell proliferation MTS assay, BXPC3; settings: Homo sapiens, BXPC-3, 72 hours
Protocol: (§1) All cell lines were obtained from ATCC and cultured and plated according to ATCC recommendations. Cells were cultured in complete culture media containing 10% heat-inactivated fetal bovine serum (FBS, Mediatech, Inc.). For adherent cell lines, once cells reached 70% confluency, they were trypsinized and resuspended in phenol red free RPMI media (Mediatech, Inc.) plus 10% heat-inactivated FBS (assay buffer) and 100 μL aliquots were plated into each well of 96-well microtiter plates at a final density of 1,000-2,000 cells/well. Cells were incubated overnight at 37° C. in 5% CO2, and treated with test compounds on the next day. For suspension cell lines, cells were resuspended in assay buffer, plated into 96-well microtiter plates at a density of 10^4-10^5 cells/well/100 μL, and treatment was started on the same day. Cells were treated with vehicle (DMSO) and test compounds for 72 hours at concentration of 100, 70, 40, 20, 10, 5, 2.5, 1.25, 0.5 and 0.2 μM in four replicates at 37° C. in 5% CO2.

[2] = system: Panc-1 (Pancreas); assay: Cell proliferation MTS assay, Panc-1; settings: Homo sapiens, 72 hours
Protocol: as §1

[3] = system: PC3 (Prostate); assay: Cell proliferation MTS assay, PC3; settings: 72 hours
Protocol: as §1

[4] = Cell proliferation MTS assay, Hela; settings: Homo sapiens, 72 hours, read-out: IC50 Hela (Colon)
Protocol: as §1

[5] = system: MDA-MB468 (Breast); assay: Cell proliferation MTS assay, MDA-MB468; settings: Homo sapiens, MDA-MB-468, 72 hours
Protocol: as §1

[6] = system: OVCAR3 (Ovary); assay: Cell proliferation MTS assay, OVCAR3; settings: Homo sapiens, OVCAR-3, 72 hours
Protocol: as §1

[7] = system: SKMEL2 (Melanoma); assay: Cell proliferation MTS assay, SKMEL2; settings: Homo sapiens, SK-MEL-2, 72 hours
Protocol: as §1

[8] = system: AKT Ser473 phosphorylation in renal cell carcinoma (786-O) Cell Line; assay: pAKT Ser473 ELISA in 786-O cells stimulated by Bv8, VEGF, IGF; settings: Homo sapiens, 786-0, 786-O, read-out: Concentration Required to Inhibit pAKT to Half-maximal Levels
Protocol: This was followed by the addition of IGF, VEGF and Bv8 to 0.1 μg/mL, 0.1 μg/mL and 2.5 μg/mL respectively for another 30 minutes before harvesting the cells and making cell lysates with RIPA buffer keeping on ice, pAKT levels were measured in duplicate samples with Cell Signaling's Ser473 pAKT ELISA kit. Optical density plate readings of pAKT levels were made at 450 nm (OD450 nm) and were normalized by total protein amount of the cell lysates. The dose of compound at which pAKT levels are reduced to 50% of the non-treatment level was calculated using GraphPad Prism4 software and is listed in Tables 4 and 5 below.

[9] = system: H1299 cells; assay: Cellular proliferation (Example B method), H1299; settings: Homo sapiens, NCI-H1299; H1299, non-small cell lung cancer
Protocol: (§2) PC3 cells were obtained from the American Type Culture Collection (ATCC, Manassas, Va., Cat.# CRL-1435) Two thousand cells from the prostate cancer line PC3 were placed in 50 μL of complete RPMI 1640 media (Invitrogen, Carlsbad, Calif., Cat.#22400-105) with 10% fetal bovine serum (Invitrogen, Carlsbad, Calif., Cat.#10438-026) into each well of 96 well cell culture plates in a hexaplicate sampling pattern. A 50 μL aliquot of test compound (prepared from stock test compounds in DMSO diluted into media) was added to the appropriate well such that the final concentrations of test compound were 200, 40, 8, 1.6, 0.32, 0.064, 0.0128, 0.00256, and 0 μM and the final DMSO concentration was less than or equal to 0.2%.
(§3) The plates were incubated for 72 hours 37° C. in an atmosphere of 5% CO2. At the end of this time a 10 μL aliquot of WST solution (Roche Applied Science, Mannheim, Germany) was added into each of the wells. Cells were exposed to the WST solution for 4 hours. A SpectraMax Plus spectrophotometric plate reader (Molecular Devices, Sunnydale, Calif.) was then used to measure the optical density at 450 nm (OD450 nm). Sigmoidal curves were drawn for the dose responses and IC50 values were calculated using the software package GraphPad Prism4 (GraphPad Software, Inc., San Diego, Calif.).
(§4) Several other cancer cell lines were obtained from ATCC and grown according to their recommendations and treated with test compounds to obtain the concentration of test compound that inhibited the cellular proliferation by 50% of no-treatment controls. These IC50 values (μM) are listed in Table 7 below obtained by the methods described in Example B: […]

[10] = system: BT-474 cells; assay: Cellular proliferation (Example B method), BT-474; settings: Homo sapiens; BT-474, breast cancer
Protocol: as §2, §3, §4

## O=c1cc(N2CCOCC2)oc2c(-c3ccc4c(c3)OCCO4)csc12 [Compound 28, 3-(2,3-dihydrobenzo[b][1,4]dioxin-6-yl)-5-morpholino-7H-thieno[3,2-b]pyran-7-one]
[1]
  IC50: 3350 nM
[2]
  IC50: 18400 nM
[3]
  IC50: 1220 nM
[4]
  IC50: 2100 nM
[5]
  IC50: 2710 nM
[6]
  IC50: 1240 nM
[7]
  IC50: 5200 nM
[8]; stimulant Bv8
  IC50: 380 nM
[8]; stimulant IGF
  IC50: 2600 nM
[8]; stimulant PBS
  IC50: 541 nM
[8]; stimulant VEGF
  IC50: 343 nM
[9]
  IC50: 951 nM
[10]
  IC50: 3780 nM
